Where two headings read alike, the source gives them in different places.
Tests used:
Format in all cases: in vivo
[1] = system: Musca domestica; assay: Test Example 2: filter paper/sucrose bait test against housefly imagoes; conditions: read-out: rate of dead pests
Protocol: (§1) On the bottom of a polyethylene cup having a diameter of 5.5 cm, a filter paper having the same diameter was laid, and 0.7 ml of the above test solution was added dropwise on the filter paper, followed by putting 30 mg of sucrose on it uniformly as a bait. Ten female Musca domestica imagoes were set free in the polyethylene cup and covered it with a lid. After 24 hours, the number of surviving and dead Musca domestica was examined and the rate of dead pests was calculated.

[2] = system: Blattella germanica; assay: Test Example 3: filter paper/sucrose bait test against German cockroach imagoes; conditions: for pest or weed control at 500 ppm: Blattella germanica, 144 h, read-out: rate of dead pests
Protocol: as §1, with “Two male Blattella germanica” for “Ten female Musca domestica”, “6 days,” for “24 hours,”, “Blattella germanica” for “Musca domestica”

[3] = system: Culex pipiens pallens; assay: Test Example 4: mosquito larvae test in treated water; conditions: 24 h, read-out: rate of dead pests
Protocol: 0.7 ml of above test solution was added to 100 ml of ion exchanged water (active ingredient concentration: 3.5 ppm). Twenty last-instar larvae of Culex pipiens pallens were set free in the solution. After one day, the number of surviving and dead Culex pipiens pallens was examined and the rate of dead pests was calculated.

[4] = 500 ppm test solution, 0.7 ml on filter paper with 30 mg sucrose, ten female imagoes, after 24 hours
[5] = 500 ppm test solution, 0.7 ml on filter paper with 30 mg sucrose, two male imagoes, after 6 days
[6] = active ingredient concentration 3.5 ppm in water, twenty last-instar larvae, after one day

`COC(=O)C(Cl)(CCCCC(F)(F)F)S(=O)(=O)CCC(F)(F)F` (stereo not drawn) [(99)] gave a pest or weed control at 500 ppm [1, 4] of at least 70%.
In the case of `CC(C)C(C#N)(CCC(F)(F)C(F)(F)F)S(=O)(=O)CCC(F)(F)F` (stereo not drawn) [(17)], the pest or weed control at 500 ppm [1, 4] is reported as at least 70%, the pest or weed control at 500 ppm [2, 5] is reported as 100% and the pest or weed control at 3.5 ppm [3, 6] is reported as at least 90%.
With `NC(=O)C(F)(CCC(F)(F)C(F)(F)F)S(=O)(=O)CCC(F)(F)F` (stereo not drawn) [(64)] the pest or weed control at 500 ppm [1, 4] was at least 70% and the pest or weed control at 500 ppm [2, 5] was 100%.
`NC(=O)C(Cl)(CCCC(F)(F)C(F)(F)F)S(=O)(=O)CCC(F)(F)F` (stereo not drawn) [(103)] gave a pest or weed control at 500 ppm [1, 4] of at least 70%, a pest or weed control at 500 ppm [2, 5] of 100% and a pest or weed control at 3.5 ppm [3, 6] of at least 90%.
`COC(=O)C(F)(CCC(F)(F)C(F)(F)F)S(=O)(=O)CCC(F)(F)C(F)(F)C(F)(F)F` (stereo not drawn) [(66)] was tested, and the pest or weed control at 500 ppm ([1]; 24 h) was at least 70%.
For `NC(=O)C(F)(CCC(F)(F)C(F)(F)F)S(=O)(=O)CCC(F)(F)C(F)(F)C(F)(F)F` (stereo not drawn) [(67)], the pest or weed control at 500 ppm ([1]; 24 h) was at least 70%, the pest or weed control at 500 ppm [2] was 100% and the pest or weed control at 3.5 ppm [3] was at least 90%.
In the case of `CC(C#N)(CCC(F)(F)C(F)(F)F)S(=O)(=O)CCC(F)(F)F` (stereo not drawn) [(11)], the pest or weed control at 500 ppm [1, 4] is reported as at least 70%, the pest or weed control at 500 ppm [2, 5] is reported as 100% and the pest or weed control at 3.5 ppm [3, 6] is reported as at least 90%.
`COC(=O)C(CCCC(F)(F)C(F)(F)F)S(=O)(=O)CCC(F)(F)F` (stereo not drawn) [(101)] gave a pest or weed control at 500 ppm [1, 4] of at least 70% and a pest or weed control at 500 ppm [2, 5] of 100%.
Compound `COC(=O)C(CCC(F)(F)C(F)(F)C(F)(F)F)S(=O)(=O)CCC(F)(F)C(F)(F)F` (stereo not drawn) [(51)] has a pest or weed control at 3.5 ppm [3] of at least 90%.
Work on `CCCCCC(C#N)(CCC(F)(F)C(F)(F)F)S(=O)(=O)CCC(F)(F)F` (stereo not drawn) [(19)] yielded a pest or weed control at 500 ppm [1, 4] of at least 70% and a pest or weed control at 3.5 ppm [3, 6] of at least 90%.
With `COC(=O)C(CCC(F)(F)C(F)(F)F)S(=O)(=O)CCC(F)(F)C(F)(F)C(F)(F)F` (stereo not drawn) [(42)] the pest or weed control at 3.5 ppm [3] was at least 90%.
In the case of `COC(=O)C(Cl)(CCC(F)(F)C(F)(F)C(F)(F)F)S(=O)(=O)CCC(F)(F)F` (stereo not drawn) [(83)], the pest or weed control at 3.5 ppm [3] is reported as at least 90%.
For `CCCCC(C#N)(CCC(F)(F)C(F)(F)F)S(=O)(=O)CCC(F)(F)F` (stereo not drawn) [(18)], the pest or weed control at 500 ppm [1, 4] was at least 70% and the pest or weed control at 3.5 ppm [3, 6] was at least 90%.
`NC(=O)C(CCC(F)(F)C(F)(F)C(F)(F)F)S(=O)(=O)CCC(F)(F)C(F)(F)F` (stereo not drawn) [(55)] was tested, and the pest or weed control at 500 ppm ([1]; 24 h) was at least 70% and the pest or weed control at 500 ppm [2] was 100%.
In the case of `CC(C)(C)OC(=O)C(CCC(F)(F)C(F)(F)F)S(=O)(=O)CCC(F)(F)F` (stereo not drawn) [(25)], the pest or weed control at 500 ppm [1, 4] is reported as at least 70% and the pest or weed control at 3.5 ppm [3, 6] is reported as at least 90%.
With `COC(=O)C(C)(CCCC(F)(F)F)S(=O)(=O)CCC(F)(F)F` (stereo not drawn) [(44)] the pest or weed control at 500 ppm [1, 4] was at least 70% and the pest or weed control at 500 ppm [2, 5] was 100%.
`CCCC(CCC(F)(F)C(F)(F)F)(C(=O)OC)S(=O)(=O)CCC(F)(F)F` (stereo not drawn) [(28)] gave a pest or weed control at 500 ppm [1, 4] of at least 70%.
Compound `COC(=O)C(CCC(F)(F)F)S(=O)(=O)CCC(F)(F)C(F)(F)F` (stereo not drawn) [(92)] has a pest or weed control at 3.5 ppm [3, 6] of at least 90%.
For `COC(=O)C(CCCC(F)(F)F)S(=O)(=O)CCC(F)(F)F` (stereo not drawn) [(22)], the pest or weed control at 500 ppm [1, 4] was at least 70% and the pest or weed control at 3.5 ppm [3, 6] was at least 90%.
For `N#CC(CCC(F)(F)C(F)(F)F)SCCC(F)(F)F` (stereo not drawn) [(47)], the “rate of dead pests” value [2, 5] was 100%.
In the case of `N#CC(CCC(F)(F)C(F)(F)C(F)(F)C(F)(F)F)S(=O)(=O)CCC(F)(F)F` (stereo not drawn) [(7)], the pest or weed control at 500 ppm [2] is reported as 100% and the pest or weed control at 3.5 ppm [3] is reported as at least 90%.
`COC(=O)C(CCC(F)(F)F)S(=O)(=O)CCC(F)(F)F` (stereo not drawn) [(76)] was tested, and the pest or weed control at 3.5 ppm [3, 6] was at least 90%.
`COC(=O)C(CCC(F)(F)C(F)(F)C(F)(F)F)S(=O)(=O)CCC(F)(F)F` (stereo not drawn) [(82)] showed a pest or weed control at 500 ppm ([1]; 24 h) of at least 70% and a pest or weed control at 3.5 ppm [3] of at least 90%.
`COC(=O)C(CCCC(F)(F)F)S(=O)(=O)CCC(F)(F)F` (stereo not drawn) [(78)] gave a pest or weed control at 500 ppm [2, 5] of 100%.
Compound `COC(=O)C(CCC(F)(F)C(F)(F)C(F)(F)F)S(=O)(=O)CCC(F)(F)C(F)(F)F` (stereo not drawn) [(95)] has a pest or weed control at 500 ppm ([1]; 24 h) of at least 70%.
With `COC(=O)C(CCC(F)(F)C(F)(F)F)S(=O)(=O)CCC(F)(F)C(F)(F)F` (stereo not drawn) [(24)] the pest or weed control at 3.5 ppm [3, 6] was at least 90%.
`COC(=O)C(C)(CCC(F)(F)C(F)(F)F)S(=O)(=O)CCC(F)(F)C(F)(F)C(F)(F)F` (stereo not drawn) [(43)] was tested, and the pest or weed control at 500 ppm ([1]; 24 h) was at least 70%.

— patent US8017656B2, “Organic sulfur compounds and use thereof” (Sumitomo Chemical Company, Limited, priority 2005, dated 2011)
